Measured values taken from patent US20240382465A1, “AROMATIC ACETYLENE DERIVATIVE, AND PREPARATION METHOD THEREFOR AND USE THEREOF” (priority 2021, published 2024).
In brackets after ≈: the same amount, converted by molar mass. Read-outs that look alike come from different tables or passages of the source.

What was measured:
[1] = biological target: recombinant Pseudomonas aeruginosa LpxC (Pseudomonas aeruginosa (strain ATCC 15692 / DSM 22644 / CIP 104116 / JCM 14847 / LMG 12228 / 1C / PRS 101 / PAO1), UniProt P47205); assay: Inhibition of LpxC enzymatic activity (fluorescamine assay); format: biochemical
In short: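 Recombinant P. aeruginosa LpxC (5 nM) with substrate UDP-3-O-(R-3-hydroxydecanoyl)-GlcNAc (10 μM), 120 min at 25 °C; compound 8 points, 4-fold dilution, 0.61-10,000 nM. Product detected by fluorescamine (ex 390/em 495 nm) after stopping with pH 8.0 phosphate; % inhibition versus DMSO control.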

K. pneumoniae ATCC13883 = assay: Antibacterial activity, MIC by broth microdilution (CLSI); format: cell-based; details: Klebsiella pneumoniae; K. pneumoniae ATCC13883, 35° C., 18 to 24 hours; read-out: MIC(K. Pneumoniae)
In short: (§1)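 Broth microdilution per CLSI, compound at 64-0.06 μg/mL final in twofold steps (1% DMSO from 100× working solutions). Inoculum 5×10^5 cfu/ml; plates incubated at 35° C for 18-24 hours.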

E. coli ATCC 25922 = assay: as above; format: cell-based; details: Escherichia coli, ATCC25922; E. coli ATCC 25922, 35° C., 18 to 24 hours; read-out: MIC(E. coli)
In short: as §1

[2] = recombinant P. aeruginosa LpxC 5 nM, substrate 10 μM, 25° C., 120 minutes, read-out: IC50

Structure (SMILES)	IC50 [1, 2] [nM]	MIC (K. pneumoniae ATCC13883) [µg/mL]	MIC (E. coli ATCC 25922) [µg/mL]	IC50 [1] [nM]
C[C@H](O)c1nccn1Cc1cc(-c2ccc(C#Cc3ccc(CNCCC(=O)O)cc3)cc2)on1 [Example 55, (S)-3-((4-((4-(3-((2-(1-hydroxyethyl)-1H-imidazol-1-yl)methyl)isoxazol-5-yl)phenyl)ethynyl)benzyl)amino)propanoic acid]	24.4	8 (≈ 17 µM)	8 (≈ 17 µM)	
C[C@H](O)c1nccn1Cc1cc(-c2ccc(C#Cc3ccc(CN4CC(CC(=O)O)C4)nc3)cc2)on1 [Example 115, (S)-2-(1-((5-((4-(3-((2-(1-hydroxyethyl)-1H-imidazol-1-yl)methyl)isoxazol-5-yl)phenyl)ethynyl)pyridin-2-yl)methyl)azetidin-3-yl)acetic acid]	24.5	8 (≈ 16.1 µM)	2 (≈ 4.02 µM)	
C[C@H](O)c1nccn1Cc1cc(-c2ccc(C#Cc3ccc(Cn4cccn4)cc3)cc2)on1 [Example 33, (S)-1-(1-((5-(4-((4-((1H-pyrazol-1-yl)methyl)phenyl)ethynyl)phenyl)isoxazol-3-yl)methyl)-1H-imidazol-2-yl)ethan-1-ol]	28.1	0.25 (≈ 0.556 µM)	0.125 (≈ 0.278 µM)	
C[C@H](O)c1nccn1Cc1cc(-c2ccc(C#Cc3ccc(CN4CCC(N5CCOCC5)CC4)cc3)cc2)on1 [Example 51, (S)-1-(1-((5-(4-((4-((4-morpholinopiperidin-1-yl)methyl)phenyl)ethynyl)phenyl)isoxazol-3-yl)methyl)-1H-imidazol-2-yl)ethan-1-ol]	6.7	8 (≈ 14.5 µM)	2 (≈ 3.63 µM)	
C[C@H](O)c1nccn1Cc1cc(-c2ccc(C#Cc3ccc(CO)nc3)cc2)on1 [Example 37, (S)-1-(1-((5-(4-((6-(hydroxymethyl)pyridin-3-yl)ethynyl)phenyl)isoxazol-3-yl)methyl)-1H-imidazol-2-yl)ethan-1-ol]	3.55	2 (≈ 4.99 µM)	1 (≈ 2.5 µM)	
C[C@H](O)c1nccn1Cc1cc(-c2ccc(C#Cc3ccc(C(=O)NCCO)cc3)cc2)on1 [Example 25, (S)-N-(2-Hydroxyethyl)-4-((4-(3-((2-(1-hydroxyethyl)-1H-imidazol-1-yl)methyl)isoxazol-5-yl)phenyl)ethynyl)benzamide]		4 (≈ 8.76 µM)	1 (≈ 2.19 µM)	20.3
C[C@H](O)c1nccn1Cc1cc(-c2ccc(C#Cc3ccc(CN4CC(C#N)C4)cc3)cc2)on1 [Example 52, (S)-1-(4-((4-(3-((2-(1-hydroxyethyl)-1H-imidazol-1-yl)methyl)isoxazol-5-yl)phenyl)ethynyl)benzyl)azetidin-3-carbonitrile]	11.2	1 (≈ 2.16 µM)	0.25 (≈ 0.539 µM)	
C[C@H](O)c1nccn1Cc1cc(-c2ccc(C#Cc3ccc(C(=O)N4CCN(C)CC4)cc3)cc2)on1 [Example 42, (S)-(4-((4-(3-((2-(1-hydroxyethyl)-1H-imidazol-1-yl)methyl)isoxazol-5-yl)phenyl)ethynyl)phenyl)(4-methylpiperazin-1-yl)methanone]	5.78	4 (≈ 8.07 µM)	2 (≈ 4.04 µM)	
C[C@H](O)c1nccn1Cc1cc(-c2ccc(C#Cc3ccc(CN4CCOCC4)cc3)cc2)no1 [Example 3, (S)-1-(1-((3-(4-((4-(morpholinomethyl)phenyl)ethynyl)phenyl)isoxazol-5-yl)methyl)-1H-imidazol-2-yl)ethan-1-ol]	24.9	2 (≈ 4.27 µM)	1 (≈ 2.13 µM)	
C[C@H](O)c1nccn1Cc1cc(-c2ccc(C#Cc3ccc(CNCC(N)=O)cc3)cc2)on1 [Example 35, (S)-2-((4-((4-(3-((2-(1-hydroxyethyl)-1H-imidazol-1-yl)methyl)isoxazol-5-yl)phenyl)ethynyl)benzyl)amino)acetamide]		0.5 (≈ 1.1 µM)	0.25 (≈ 0.549 µM)	14.9
C[C@H](O)c1nccn1Cc1cc(-c2ccc(C#Cc3ccc(CNCCN)cc3)cc2)on1 [Example 57, (S)-1-(1-((5-(4-((4-(((2-aminoethyl)amino)methyl)phenyl)ethynyl)phenyl)isoxazol-3-yl)methyl)-1H-imidazol-2-yl)ethan-1-ol]	14.1	4 (≈ 9.06 µM)	2 (≈ 4.53 µM)	
C[C@H](O)c1nccn1Cc1cc(-c2ccc(C#Cc3ccc(CCC(=O)O)cc3)cc2)on1 [Example 27, (S)-3-(4-((4-(3-((2-(1-hydroxyethyl)-1H-imidazol-1-yl)methyl)isoxazol-5-yl)phenyl)ethynyl)phenyl)propanoic acid]	4.25	2 (≈ 4.53 µM)	1 (≈ 2.27 µM)	
C[C@H](O)c1nccn1Cc1cc(-c2ccc(C#Cc3ccncc3)cc2)on1 [Example 10, (S)-1-(1-((5-(4-(pyridin-4-ylethynyl)phenyl)isoxazol-3-yl)methyl)-1H-imidazol-2-yl)ethan-1-ol]	30.4	1 (≈ 2.7 µM)	0.5 (≈ 1.35 µM)	
C[C@H](O)c1nccn1Cc1cc(-c2ccc(C#Cc3ccc(CN4CCOCC4)cc3)cc2)on1 [Example 2, (S)-1-(1-((5-(4-((4-(morpholinomethyl)phenyl)ethynyl)phenyl)isoxazol-3-yl)methyl)-1H-imidazol-2-yl)ethan-1-ol]	3.07	1 (≈ 2.13 µM)	0.5 (≈ 1.07 µM)	
C[C@H](O)c1nccn1Cc1cc(-c2ccc(C#Cc3ccc(C(N)=O)cc3)cc2)on1 [Example 23, (S)-4-((4-(3-((2-(1-hydroxyethyl)-1H-imidazol-1-yl)methyl)isoxazol-5-yl)phenyl)ethynyl)benzamide]	7.75	1 (≈ 2.42 µM)	0.25 (≈ 0.606 µM)	
C[C@H](O)c1nccn1Cc1cc(-c2ccc(C#Cc3ccccc3)cc2)on1 [Example 7, (S)-1-(1-((5-(4-(phenylethynyl)phenyl)isoxazol-3-yl)methyl)-1H-imidazol-2-yl)ethan-1-ol]	73.1	0.5 (≈ 1.35 µM)	0.25 (≈ 0.677 µM)	
C[C@H](O)c1nccn1Cc1cc(-c2ccc(C#Cc3ccc(CN4CCN(C)CC4)cc3)cc2)on1 [Example 48, (S)-1-(1-((5-(4-((4-((4-methylpiperazin-1-yl)methyl)phenyl)ethynyl)phenyl)isoxazol-3-yl)methyl)-1H-imidazol-2-yl)ethan-1-ol]	9.77	8 (≈ 16.6 µM)	2 (≈ 4.15 µM)	
C[C@H](O)c1nccn1Cc1cc(-c2ccc(C#Cc3ccc(CC(N)=O)nc3)cc2)on1 [Example 62, (S)-2-(5-((4-(3-((2-(1-hydroxyethyl)-1H-imidazol-1-yl)methyl)isoxazol-5-yl)phenyl)ethynyl)pyridin-2-yl)acetamide]	21.3	4 (≈ 9.36 µM)	1 (≈ 2.34 µM)	
C[C@H](O)c1nccn1Cc1cc(-c2ccc(C#Cc3ccc(C(=O)N4CCOCC4)cc3)cc2)on1 [Example 6, (S)-(4-((4-(3-((2-(1-hydroxyethyl)-1H-imidazol-1-yl)methyl)isoxazol-5-yl)phenyl)ethynyl)phenyl)(morpholino)methanone]	12.9	4 (≈ 8.29 µM)	2 (≈ 4.14 µM)	
C[C@H](O)c1nccn1Cc1cc(-c2ccc(C#Cc3cccc(C(N)=O)c3)cc2)on1 [Example 63, (S)-3-((4-(3-((2-(1-hydroxyethyl)-1H-imidazol-1-yl)methyl)isoxazol-5-yl)phenyl)ethynyl)benzamide]	65.1	4 (≈ 9.7 µM)	2 (≈ 4.85 µM)	
C[C@H](O)c1nccn1Cc1cc(-c2ccc(C#Cc3ccc(CNCCO)cc3)cc2)on1 [Example 34, (S)-2-((4-((4-(3-((2-(1-hydroxyethyl)-1H-imidazol-1-yl)methyl)isoxazol-5-yl)phenyl)ethynyl)benzyl)amino)ethan-1-ol]		2 (≈ 4.52 µM)	1 (≈ 2.26 µM)	4.86
C[C@H](O)c1nccn1Cc1cc(-c2ccc(C#Cc3ccc(C(=O)O)cc3)cc2)on1 [Example 24, (S)-4-((4-(3-((2-(1-hydroxyethyl)-1H-imidazol-1-yl)methyl)isoxazol-5-yl)phenyl)ethynyl)benzoic acid]	22.2	8 (≈ 19.4 µM)	4 (≈ 9.68 µM)	
C[C@H](O)c1nccn1Cc1cc(-c2ccc(C#Cc3ccc(CN4CCNC(=O)C4)nc3)cc2)on1 [Example 114, (S)-4-((5-((4-(3-((2-(1-hydroxyethyl)-1H-imidazol-1-yl)methyl)isoxazol-5-yl)phenyl)ethynyl)pyridin-2-yl)methyl)piperazin-2-one]	10.5	8 (≈ 16.6 µM)	2 (≈ 4.14 µM)	
C[C@H](O)c1nccn1Cc1cc(-c2ccc(C#Cc3ccc(CCC(N)=O)nc3)cc2)on1 [Example 40, (S)-3-(5-((4-(3-((2-(1-hydroxyethyl)-1H-imidazol-1-yl)methyl)isoxazol-5-yl)phenyl)ethynyl)pyridin-2-yl)propanamide]	16.7	4 (≈ 9.06 µM)	1 (≈ 2.27 µM)	
C[C@H](O)c1nccn1Cc1cc(-c2ccc(C#Cc3ccc(CN4CCC(O)CC4)cc3)cc2)on1 [Example 18, (S)-1-(4-((4-(3-((2-(1-hydroxyethyl)-1H-imidazol-1-yl)methyl)isoxazol-5-yl)phenyl)ethynyl)benzyl)piperidin-4-ol]	9.84	4 (≈ 8.29 µM)	2 (≈ 4.14 µM)	
C[C@H](O)c1nccn1Cc1cc(-c2ccc(C#Cc3ccc(CCC(=O)O)nc3)cc2)on1 [Example 58, (S)-3-(5-((4-(3-((2-(1-hydroxyethyl)-1H-imidazol-1-yl)methyl)isoxazol-5-yl)phenyl)ethynyl)pyridin-2-yl)propanoic acid]	22	8 (≈ 18.1 µM)	4 (≈ 9.04 µM)	
